Results from patent publication US8592404B2, “Derivatives of porphyrin, particularly chlorins and/or bacteriochlorins, and uses thereof in photodynamic therapy” (Universidade de Coimbra, priority 2004, dated 2013).
Read-outs that look alike come from different tables or passages of the source.

Key:
[1] = deuterated water, 7.4 pH; cited from earlier work
[2] = Quantum yield of the formation of singlet oxygen (phosphorescence at 1270 nm versus reference photosensitizer TPPS); format: physicochemical; conditions: deuterated aqueous solution
Excerpt: According to the present invention, the reference photosensitizer used in meso-tetrakis(3-sulfophenyl)porphyrin (TPPS) whereof the value for the quantum yield of the formation of singlet oxygen in deuterated water is 0.64 at 7.4 pH (photochem. Photobiol, 70: 391, 1999).

[3] = Fluorescence quantum yield; format: physicochemical
[4] = Lifetime of the triplet state in aqueous solution; format: physicochemical
[5] = Lifetime of singlet oxygen; format: physicochemical; conditions: in deuterated water

Molecule | Quantum yield of the formation of singlet oxygen [1] | Quantum yield of the formation of singlet oxygen [2] | Fluorescence quantum yield [3] | Lifetime of the triplet state ([4]; air-saturated aqueous solution) | Lifetime of the triplet state ([4]; nitrogen-saturated aqueous solution) | Lifetime of singlet oxygen [5]
O=S(=O)(O)c1cccc(-c2c3nc(c(-c4cccc(S(=O)(=O)O)c4)c4ccc([nH]4)c(-c4cccc(S(=O)(=O)O)c4)c4nc(c(-c5cccc(S(=O)(=O)O)c5)c5ccc2[nH]5)C=C4)C=C3)c1 [TPPS, meso-tetrakis(3-sulfophenyl)porphyrin] | 0.64 |  |  |  |  | 
bacteriochlorin |  | greater than 30% | 0.013 | 3.88 μs | 235 μs | 65 μs
